Here are results for five compounds from BindingDB's records for doi:10.1016/j.bmcl.2003.09.075 (Eli Lilly, 2003).

pIC50, pKi: −log10 of the molar value.

A word on the pKi: it is the negative decadic logarithm of the Ki, by convention in mol/L. Read a low pKi as a large Ki. Broadly, the pIC50 is the negative decadic logarithm of the IC50, by convention in mol/L. Low values mean a large IC50, high ones a small IC50.

Assay [1] concerns the target NS3 protease (Hepatitis C virus). Briefly: Binding affinity towards Protease using PNA assay.
Assay [2] shares this target. The assay is described as follows: Inhibitory activity against Protease using replicon assay […] at 25 uM concentration.
Assay [3] has the same target. The assay is described as follows: Inhibitory activity against HCV protease using replicon assay […]. Background: In antiviral work, replicon cells carry a viral genome segment that copies itself.
Assay [4] shares this target. The assay is described as follows: Inhibitory activity against HCV protease in enzyme inhibition assay.

`CCC[C@H](NC(=O)[C@@H]1[C@H]2CCC[C@H]2CN1C(=O)[C@@H](NC(=O)[C@@H](NC(=O)c1cnccn1)C(C)C)C(C)(C)C)C(=O)C(=O)NC(C)CC` (stereo partly drawn) [(1S,5S,6R)-2-((S)-3,3-Dimethyl-2-{(S)-3-methyl-2-[(pyrazine-2-carbonyl)-amino]-butyrylamino}-butyryl)-octahydro-cyclopenta[c]pyrrole-1-carboxylic acid [1-((S)-sec-butylaminooxalyl)-butyl]-amide]: the negative-log Ki (pKi) in assay [1] was 6.68. Also, in assay [2], the pIC50 is 5.46.
Take `CC(C)[C@H](NC(=O)c1cnccn1)C(=O)N[C@H](C(=O)N1C[C@@H]2CCC[C@@H]2[C@H]1C(=O)N[C@@H](CC(F)F)C(=O)C(=O)N[C@@H](C)c1ccccc1)C(C)(C)C` [(1S,5S,6R)-2-((S)-3,3-Dimethyl-2-{(S)-3-methyl-2-[(pyrazine-2-carbonyl)-amino]-butyrylamino}-butyryl)-octahydro-cyclopenta[c]pyrrole-1-carboxylic acid [3,3-difluoro-1-((S)-(S)-1-phenyl-ethylaminooxalyl)-propyl]-amide]: in assay [1], the pKi is 6.92. In addition, in assay [3], the pIC50 is 6.20.
`CC(C)[C@H](NC(=O)c1cnccn1)C(=O)N[C@H](C(=O)N1C[C@@H]2CCC[C@@H]2[C@H]1C(=O)NC(CC(F)F)C(=O)C(=O)NC1CC1)C(C)C` (stereo partly drawn) [(1S,5S,6R)-2-((S)-3-Methyl-2-{(S)-3-methyl-2-[(pyrazine-2-carbonyl)-amino]-butyrylamino}-butyryl)-octahydro-cyclopenta[c]pyrrole-1-carboxylic acid (1-cyclopropylaminooxalyl-3,3-difluoro-propyl)-amide] showed a pKi in assay [1] of 6.66. Further, the pIC50 in assay [2] is 5.42.
For `CCC(C)NC(=O)C(=O)[C@H](CC(F)F)NC(=O)[C@@H]1[C@H]2CCC[C@H]2CN1C(=O)[C@@H](NC(=O)[C@@H](NC(=O)c1cnccn1)C(C)C)C(C)(C)C` (stereo partly drawn) [(1S,5S,6R)-2-((S)-3,3-Dimethyl-2-{(S)-3-methyl-2-[(pyrazine-2-carbonyl)-amino]-butyrylamino}-butyryl)-octahydro-cyclopenta[c]pyrrole-1-carboxylic acid [1-((S)-sec-butylaminooxalyl)-3,3-difluoro-propyl]-amide], in assay [1], the pKi was 6.32. Further, the pIC50 in assay [3] was 5.58.
Take `CC(C)[C@H](NC(=O)c1cnccn1)C(=O)N[C@H](C(=O)N1C[C@@H]2CCC[C@@H]2[C@H]1C(=O)N[C@@H](CC(F)F)C(=O)C(=O)N[C@@H](C)c1ccccc1)C(C)C` [(1S,5S,6R)-2-((S)-3-Methyl-2-{(S)-3-methyl-2-[(pyrazine-2-carbonyl)-amino]-butyrylamino}-butyryl)-octahydro-cyclopenta[c]pyrrole-1-carboxylic acid [3,3-difluoro-1-((S)-(S)-1-phenyl-ethylaminooxalyl)-propyl]-amide]: the negative logarithm of the IC50 (pIC50) in assay [3] was 6.04. The same compound had a pKi in assay [4] of 6.40.
